Experimental data published in the supplement of paper PMC11061612.

How the values were obtained:
Capivasertib = compound: C1CN(CCC1(C(=O)N[C@@H](CCO)C2=CC=C(C=C2)Cl)N)C3=NC=NC4=C3C=CN4 [Capivasertib]; settings: max 10 µM
How it was run: (§1)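 Following 24 hours at 37°C and 5% CO2, cancer cell lines in 1536-well plates with 7.5 μl DMEM/F12 or RPMI and 10% FBS were dosed for 72 hours, final DMSO typically being 0.2%. CellTiter-Glo 2.0 luminescence, scaled between blank-well and DMSO-well means, gave the viability readout. Dose responses were fitted to a two-parameter logistic curve with a non-linear mixed effects model, and the single-agent IC50 was derived from this fit.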

AZD1775 = compound: C=CCn1c(=O)c2cnc(Nc3ccc(N4CCN(C)CC4)cc3)nc2n1-c1cccc(C(C)(C)O)n1 [AZD1775]
How it was run: as §1

Trametinib = compound: CC(=O)Nc1cccc(-n2c(=O)n(C3CC3)c(=O)c3c(Nc4ccc(I)cc4F)n(C)c(=O)c(C)c32)c1 [Trametinib]; settings: max 1 µM
How it was run: as §1

Palbociclib = compound: CC(=O)c1c(C)c2cnc(Nc3ccc(N4CCNCC4)cn3)nc2n(C2CCCC2)c1=O [Palbociclib]; settings: max 10 µM
How it was run: as §1

AZD1390 = compound: CC(C)n1c(=O)n(C)c2cnc3cc(F)c(-c4ccc(OCCCN5CCCCC5)nc4)cc3c21 [AZD1390]; settings: max 0.3 µM
How it was run: as §1

Venetoclax = compound: CC1(C)CCC(CN2CCN(c3ccc(C(=O)NS(=O)(=O)c4ccc(NCC5CCOCC5)c([N+](=O)[O-])c4)c(Oc4cnc5[nH]ccc5c4)c3)CC2)=C(c2ccc(Cl)cc2)C1 [Venetoclax]; settings: max 1 µM
How it was run: as §1

Dasatinib = compound: CC1=C(C(=CC=C1)Cl)NC(=O)C2=CN=C(S2)NC3=CC(=NC(=N3)C)N4CCN(CC4)CCO [Dasatinib]; settings: max 2 µM
How it was run: as §1

SG3199 = compound: CC1=CN2[C@@H](C1)C=NC3=CC(=C(C=C3C2=O)OC)OCCCCCOC4=C(C=C5C(=C4)N=C[C@@H]6CC(=CN6C5=O)C)OC [SG3199]; settings: max 0.001 µM
How it was run: as §1

AZD2811 = compound: CCN(CCO)CCCOc1ccc2c(Nc3cc(CC(=O)Nc4cccc(F)c4)[nH]n3)ncnc2c1 [AZD2811]; settings: max 1 µM
How it was run: as §1

SN-38 = compound: CCc1c2c(nc3ccc(O)cc13)-c1cc3c(c(=O)n1C2)COC(=O)[C@]3(O)CC [SN-38]; settings: max 0.3 µM
How it was run: as §1

AZD0156 = compound: CN(C)CCCOc1ccc(-c2ccc3ncc4c(c3c2)n(C2CCOCC2)c(=O)n4C)cn1 [AZD0156]
How it was run: as §1

AZD4320 = compound: CN(CC[C@H](CSC1=CC=CC=C1)NC2=C(C=C(C=C2)S(=O)(=O)NC(=O)C3=CC=C(C=C3)N4CCC(CC4)[C@H](C5=CC=CC=C5C6=CC=C(C=C6)Cl)O)S(=O)(=O)C(F)(F)F)CCO [AZD4320]; settings: max 1 µM
How it was run: as §1

Alisertib = compound: COc1cc(Nc2ncc3c(n2)-c2ccc(Cl)cc2C(c2c(F)cccc2OC)=NC3)ccc1C(=O)O [Alisertib]; settings: max 10 µM
How it was run: as §1

Gefitinib = compound: COc1cc2ncnc(Nc3ccc(F)c(Cl)c3)c2cc1OCCCN1CCOCC1 [Gefitinib]; settings: max 10 µM
How it was run: as §1

Prexasertib = compound: COc1cccc(OCCCN)c1-c1cc(Nc2cnc(C#N)cn2)n[nH]1 [Prexasertib]; settings: max 1 µM
How it was run: as §1

Doxorubicin = compound: COc1cccc2c1C(=O)c1c(O)c3c(c(O)c1C2=O)C[C@@](O)(C(=O)CO)C[C@@H]3O[C@H]1C[C@H](N)[C@H](O)[C@H](C)O1 [Doxorubicin]; settings: max 1 µM
How it was run: as §1

AZD5153 = compound: COc1nnc2ccc(N3CCC(c4ccc(OCCN5CCN(C)C(=O)[C@H]5C)cc4)CC3)nn12 [AZD5153]; settings: max 1 µM
How it was run: as §1

Lapatinib = compound: CS(=O)(=O)CCNCc1ccc(-c2ccc3ncnc(Nc4ccc(OCc5cccc(F)c5)c(Cl)c4)c3c2)o1 [Lapatinib]; settings: max 10 µM
How it was run: as §1

AZD8186 = compound: C[C@@H](Nc1cc(F)cc(F)c1)c1cc(C(=O)N(C)C)cc2c(=O)cc(N3CCOCC3)oc12 [AZD8186]
How it was run: as §1

Crizotinib = compound: C[C@@H](Oc1cc(-c2cnn(C3CCNCC3)c2)cnc1N)c1c(Cl)ccc(F)c1Cl [Crizotinib]; settings: max 10 µM
How it was run: as §1

Savolitinib = compound: C[C@@H](c1ccc2nccn2c1)n1nnc2ncc(-c3cnn(C)c3)nc21 [Savolitinib]; settings: max 1 µM
How it was run: as §1

AZD6738 = compound: C[C@@H]1COCCN1C2=NC(=NC(=C2)C3(CC3)[S@](=N)(=O)C)C4=C5C=CNC5=NC=C4 [AZD6738]; settings: max 10 µM
How it was run: as §1

AZD5991 = compound: Cc1c2c(nn1C)CSCc1cc(n(C)n1)CSc1cc(c3ccccc3c1)OCCCc1c(C(=O)O)n(C)c3c-2c(Cl)ccc13 [AZD5991]; settings: max 1 µM
How it was run: as §1

AZD7648 = compound: Cc1cc2ncnn2cc1Nc1ncc2c(n1)n(C1CCOCC1)c(=O)n2C [AZD7648]; settings: max 10 µM
How it was run: as §1

Taselisib = compound: Cc1nc(-c2cn3c(n2)-c2ccc(-c4cnn(C(C)(C)C(N)=O)c4)cc2OCC3)n(C(C)C)n1 [Taselisib]; settings: max 10 µM
How it was run: as §1

Selumetinib = compound: Cn1cnc2c(F)c(Nc3ccc(Br)cc3Cl)c(C(=O)NOCCO)cc21 [Selumetinib]; settings: max 10 µM
How it was run: as §1

MK-2206 = compound: NC1(c2ccc(-c3nc4ccn5c(=O)[nH]nc5c4cc3-c3ccccc3)cc2)CCC1 [MK-2206]; settings: max 10 µM
How it was run: as §1

Olaparib = compound: O=C(c1cc(Cc2n[nH]c(=O)c3ccccc23)ccc1F)N1CCN(C(=O)C2CC2)CC1 [Olaparib]; settings: max 10 µM
How it was run: as §1

Carboplatin = compound: C1CC(C1)(C(=O)[O-])C(=O)[O-].N.N.[Pt+2] [Carboplatin]; settings: max 10 µM
How it was run: as §1

AZD5363 = compound: C1CN(CCC1(C(=O)N[C@@H](CCO)C2=CC=C(C=C2)Cl)N)C3=NC=NC4=C3C=CN4 [AZD5363]; settings: max 10 µM
How it was run: as §1

Paclitaxel = compound: CC(=O)O[C@H]1C(=O)[C@@]2(C)[C@H]([C@H](OC(=O)c3ccccc3)[C@]3(O)C[C@H](OC(=O)[C@H](O)[C@@H](NC(=O)c4ccccc4)c4ccccc4)C(C)=C1C3(C)C)[C@]1(OC(C)=O)CO[C@@H]1C[C@@H]2O [Paclitaxel]; settings: max 3 µM
How it was run: as §1

Etoposide = compound: COc1cc([C@@H]2c3cc4c(cc3[C@@H](O[C@@H]3O[C@@H]5CO[C@@H](C)O[C@H]5[C@H](O)[C@H]3O)[C@H]3COC(=O)[C@H]23)OCO4)cc(OC)c1O [Etoposide]; settings: max 10 µM
How it was run: as §1

SRA737 = compound: N#Cc1cnc(Nc2cc(NC[C@H]3CNCCO3)c(C(F)(F)F)cn2)cn1 [SRA737]; settings: max 10 µM
How it was run: as §1

[1] = compound: O=C(Nc1ccc2[nH]nc(-c3ccncc3)c2c1)[C@@H]1CCN(CC(=O)N2CCN(c3ccc(-c4ncccn4)cc3)CC2)C1; settings: max 5 µM
How it was run: as §1

5-Fluorouracil = compound: O=c1[nH]cc(F)c(=O)[nH]1 [5-Fluorouracil]; settings: max 20 µM
How it was run: as §1

Gemcitabine = compound: Nc1ccn([C@@H]2O[C@H](CO)[C@@H](O)C2(F)F)c(=O)n1 [Gemcitabine]; settings: max 0.3 µM
How it was run: as §1

Row | Cell Line | IC50, cell viability 72 h (Capivasertib) [nM] | IC50, cell viability 72 h (AZD1775; max 3 µM) [nM] | IC50, cell viability 72 h (Trametinib) [nM] | IC50, cell viability 72 h (Palbociclib) [nM] | IC50, cell viability 72 h (AZD1390) [nM] | IC50, cell viability 72 h (Venetoclax) [nM] | IC50, cell viability 72 h (Dasatinib) [nM] | IC50, cell viability 72 h (SG3199) [nM] | IC50, cell viability 72 h (AZD2811) [nM] | IC50, cell viability 72 h (SN-38) [nM] | IC50, cell viability 72 h (AZD0156; max 3 µM) [nM] | IC50, cell viability 72 h (AZD4320) [nM] | IC50, cell viability 72 h (Alisertib) [nM] | IC50, cell viability 72 h (Gefitinib) [nM] | IC50, cell viability 72 h (Prexasertib) [nM] | IC50, cell viability 72 h (Doxorubicin) [nM] | IC50, cell viability 72 h (AZD5153) [nM] | IC50, cell viability 72 h (Lapatinib) [nM] | IC50, cell viability 72 h (AZD8186; max 3 µM) [nM] | IC50, cell viability 72 h (Crizotinib) [nM] | IC50, cell viability 72 h (Savolitinib) [nM] | IC50, cell viability 72 h (AZD6738) [nM] | IC50, cell viability 72 h (AZD5991) [nM] | IC50, cell viability 72 h (AZD7648) [nM] | IC50, cell viability 72 h (Taselisib) [nM] | IC50, cell viability 72 h (Selumetinib) [nM] | IC50, cell viability 72 h (MK-2206) [nM] | IC50, cell viability 72 h (Olaparib) [nM] | IC50, cell viability 72 h (Carboplatin) [nM] | IC50, cell viability 72 h (AZD5363) [nM] | IC50, cell viability 72 h (AZD1775; max 1 µM) [nM] | IC50, cell viability 72 h (Paclitaxel) [nM] | IC50, cell viability 72 h (AZD0156; max 1 µM) [nM] | IC50, cell viability 72 h (Etoposide) [nM] | IC50, cell viability 72 h (AZD8186; max 10 µM) [nM] | IC50, cell viability 72 h (SRA737) [nM] | IC50, cell viability 72 h [1] [nM] | IC50, cell viability 72 h (5-Fluorouracil) [nM] | IC50, cell viability 72 h (Gemcitabine) [nM]
1 | LS-411N (Colorectal Carcinoma) | 7040 | 412 | 44.7 | > 10000 | > 300 | > 1000 | > 2000 | > 1 | > 1000 | > 300 | > 3000 | > 1000 | > 10000 | > 10000 | 42.4 | > 1000 | 169 | > 10000 | > 3000 | > 10000 | > 1000 | 4060 | > 1000 | > 10000 | > 10000 | 1340 | > 10000 | > 10000 | – | – | – | – | – | – | – | – | – | – | –
2 | KP-N-YN (Neuroblastoma) | – | – | > 1000 | > 10000 | > 300 | 344 | > 2000 | > 1 | 402 | 35 | – | 49.2 | 1090 | > 10000 | 5.36 | 749 | > 1000 | > 10000 | – | > 10000 | > 1000 | 751 | > 1000 | > 10000 | 5580 | > 10000 | > 10000 | > 10000 | > 10000 | > 10000 | 307 | 110 | > 1000 | > 10000 | > 10000 | 751 | > 5000 | > 20000 | –
3 | A101D (Melanoma) | > 10000 | 687 | 148 | > 10000 | > 300 | > 1000 | > 2000 | > 1 | > 1000 | 55.9 | > 3000 | > 1000 | 5360 | > 10000 | 181 | 456 | 155 | > 10000 | > 3000 | > 10000 | > 1000 | 4490 | 198 | > 10000 | 2710 | 3920 | > 10000 | > 10000 | – | – | – | – | – | – | – | – | – | – | –
4 | NCI-H841 (Small Cell Lung Carcinoma) | – | 1690 | > 1000 | > 10000 | > 300 | > 1000 | > 2000 | – | > 1000 | > 300 | > 3000 | > 1000 | – | > 10000 | – | – | > 1000 | > 10000 | – | > 10000 | > 1000 | > 10000 | > 1000 | > 10000 | > 10000 | > 10000 | > 10000 | > 10000 | > 10000 | > 10000 | – | 26.6 | – | > 10000 | > 10000 | > 10000 | > 5000 | > 20000 | > 300
5 | DU-4475 (Breast Carcinoma) | > 10000 | 437 | 1.18 | > 10000 | > 300 | > 1000 | > 2000 | > 1 | > 1000 | 1.93 | > 3000 | 93.5 | 543 | > 10000 | 86.4 | 32.3 | 210 | 6760 | > 3000 | 3780 | > 1000 | 1700 | > 1000 | > 10000 | > 10000 | 55.6 | > 10000 | 5190 | – | – | – | – | – | – | – | – | – | – | –
6 | MKN1 (Gastric Carcinoma) | – | 640 | > 1000 | > 10000 | > 300 | > 1000 | 560 | – | > 1000 | 124 | > 3000 | > 1000 | – | > 10000 | – | – | 343 | > 10000 | – | > 10000 | > 1000 | 2870 | > 1000 | > 10000 | 573 | > 10000 | > 10000 | > 10000 | > 10000 | > 10000 | – | 13.4 | – | 1250 | > 10000 | 4850 | > 5000 | > 20000 | 161
